Measured values published in patent US12636269B2, “Compositions and methods of use of gamma-ketoaldheyde scavengers for treating, preventing or improving fibrosis of the liver” (MTI Biotech, Inc., priority 2017, dated 2026).

What was measured:
primary human HSC = details: non-cytotoxic levels; cited from earlier work
cyclooxygenase enzymes = details: cited from earlier work
[1] = in vitro and in vivo; cited from earlier work
HepG2 cells = details: cited from earlier work
DIAMOND mice = assay: liver histology (fibrosis, steatosis, ballooning, inflammation) in DIAMOND mice on high-fat, high-sugar diet; type: in vivo, mouse; details: for fibrosis score: Picosirius Red staining, scale of 0 to 4, 1 g/L in drinking water, 12 weeks
Text: DIAMOND (Diet Induced Animal Model of Non-alcoholic fatty liver Disease) is a proprietary isogenic mouse strain that sequentially develops non-alcoholic fatty liver disease, non-alcoholic steatohepatitis, fibrosis, and hepatocellular carcinoma in response to a high-fat, high-sugar diet. Disease progression in the DIAMOND mice uniquely parallels human disease progression, including histopathology.
(§1) Twelve 8-wk old male DIAMOND mice were placed on ad libitum high fat diet (Harlan—ENVIGO TD.88317) and water containing glucose (18.9% w/v) and fructose (23.1% w/v); all mice remained on this diet throughout the study protocol. At 12 weeks of age, mice were divided into two groups: 1) 2-HOBA (n=6), and 2) vehicle controls (n=6). Animals in the 2-HOBA group received 2-HOBA in drinking water (1 g/L water with glucose and fructose). The vehicle control group received water without 2-HOBA (with glucose and fructose). Body weight and food intake were measured weekly. At […] of age, all animals underwent a glucose tolerance test (GTT) and MRI imaging to assess hepatic fat. For the GTT, animals were fasted for 12 hours and then glucose (2 g/kg bw of a 100 mg/mL glucose in sterile water) was administered by oral gavage. Blood was sampled at 0, 15, 30, 45, 60, 90, and 120 minutes after glucose administration and area under the curve was calculated. Animals were sacrificed at 24 weeks of age (12 weeks of 2-HOBA or vehicle treatment). Tissues and serum were collected for analysis.
Liver sections were stained with hematoxylin and eosin (for scoring of steatosis, hepatocyte ballooning, and inflammation) and Sirius red (for assessment of fibrosis). Scoring was performed in a blinded manner for steatosis, ballooning, inflammation, and necrosis using the following criterial, Steatosis (0-4): 0=<5%; 1=5-25%; 2=25-50%; 3=50-75%; 4=75-100%. Ballooning (0-3): 0=absent; 1=mild (focal involving fewer than three hepatocytes); 2=moderate (focal involving more than three hepatocytes or multifocal); 3=prominent (multifocal with more than two foci of three or more hepatocytes). Inflammation (0-4): 0=absent; 1=minimal (zero to one focus per 20× field); 2=mild (two foci); 3=moderate (three foci); 4=severe (four or more foci). Serum levels of glucose, alanine transaminase, and aspartate transaminase were measured. Liver mRNA expression was assessed via RT-qPCR for the following genes: Tnfa, Nlrpla, Il1b, Il18, Timp1, Colla1, ProCard, Nlrp3, Casp1, ProIl1b, Tgfb1, Bambi, Pdk4, and Gapdh. Two-tailed independent samples t-tests were used to compare endpoints between 2-HOBA and vehicle treated groups. Significance was set at α=0.05.

Colla1 = assay: liver mRNA expression by RT-qPCR in DIAMOND mice, Colla1; type: in vivo, mouse; details: qRT-PCR, not statistically significant (p=0.08)
Text: as §1, with “Animals were sacrificed at 24 weeks of age (12 weeks of 2-HOBA or vehicle treatment). Tissues and serum were collected for analysis.” left out
(§2) Liver sections were stained with hematoxylin and eosin (for scoring of steatosis, hepatocyte ballooning, and inflammation) and Sirius red (for assessment of fibrosis). […] Serum levels of glucose, alanine transaminase, and aspartate transaminase were measured. Liver mRNA expression was assessed via RT-qPCR for the following genes: Tnfa, Nlrpla, Il1b, Il18, Timp1, Colla1, ProCard, Nlrp3, Casp1, ProIl1b, Tgfb1, Bambi, Pdk4, and Gapdh. […]

Timp1 = assay: liver mRNA expression by RT-qPCR in DIAMOND mice, Timp1; type: in vivo, mouse; details: qRT-PCR
Text: as §1, with “Animals were sacrificed at 24 weeks of age (12 weeks of 2-HOBA or vehicle treatment). Tissues and serum were collected for analysis.” left out
as §2

[2] = compared to vehicle treated DIAMOND mice

Compound	HSC activation (α-SMA expression, MAPK activation, cytokine production) (primary human HSC)	inhibition of cyclooxygenase enzymes (cyclooxygenase enzymes)	protein and lipid adduction [1]	protection against H2O2-induced cytotoxicity (HepG2 cells)	hepatic fibrosis (DIAMOND mice; DIAMOND mice)	markers of inflammation (DIAMOND mice; DIAMOND mice)	fibrosis score (DIAMOND mice; the remaining two treated mice)	fibrosis score (DIAMOND mice; three of the treated mice)	degree of hepatic steatosis (DIAMOND mice; [2])	degree of hepatocellular ballooning (DIAMOND mice; [2])	incidence of fibrosis (DIAMOND mice; compared to vehicle treated DIAMOND mice, p=0.03)	Colla1 mRNA expression levels (Colla1)	liver Timp1 mRNA expression (Timp1)
15-E2-isolevuglandin [15-E2-IsoLG]	promoted HSC activation	–	–	–	–	–	–	–	–	–	–	–	–
NCc1ccccc1O [2-HOBA, 2-Hydroxybenzylamine]	–	does not inhibit	preventing protein and lipid adduction	dramatically protected	attenuates	without altering	1	0	similar	similar	significantly lower	tended to be lower	reduced
